Converted amounts (≈) assume the structure as drawn. Structures can show the parent of a compound that is named as a salt.
Experiments:
[1] = format: in vitro ADME, Wistar Han rats; conditions: 1 μM, 4 mg/mL protein, 37° C., 0-60 minutes; FIG. 4
Protocol: The human liver S9 (pool from 50 donors) and the rat liver S9 (from Wistar Han rats, pool of 240) fractions were purchased from SekisuiXenoTech, USA. The protein concentration in the incubation was 4 mg/mL. The incubations were performed in 96-well plates at 37° C. using an automated Hamilton liquid handling system with a total incubation volume of 150 microliter per well. The compounds were each incubated in triplicates in three wells per time point. The liver S9 suspensions were pre-incubated at 37° C. and the reactions started by addition of stock solutions of the test compounds to the incubation wells. The test compounds were dissolved in dimethyl sulfoxide (DMSO) and further diluted in water before spiking the stock solution into the incubation wells. The final DMSO concentration in the incubations was 0.1%. The test compounds were incubated with liver S9 fractions for 0, 5, 10, 15, 30, 45 and 60 minutes. The incubations were terminated by transferring 100 microliter of the incubation samples to a 96-well plate containing 100 microliter of cold (approximately +4° C.) stop reagent containing 2% formic acid, 20 mg/mL ascorbic acid, 10 mg/mL citric acid and 3 mg/mL TCEP (tris(2-carboxyethyl)phosphine). After mixing, the samples were transferred to Nunc 1.0 mL cryo tubes and immediately frozen at −80° C. until analysis. Concentrations of compound (I) were determined after solid-phase extraction of the samples followed by LC-MS/MS analysis. The increase in concentration of compound (I) at the different time points was calculated by subtracting the concentration of compound (I) in the sample taken at time 0 from the concentrations of compound (I) in samples taken at the different time points.
Mass spectrometer (LC-MS/MS) Waters Acquity-Waters Xevo TQ-S. Analytical column Acquity BEH C18 50×2.1 mm, 1.7 micrometer. Mobile phase A: 0.2% formic acid in 20 mM NH4-Formate. Mobile phase B: 0.2% formic acid in acetonitrile. Gradient run from 5% B to 95% B in 3.5 minutes. Flow rate 0.6 mL/min. […]

[2] = Conversion to compound (I) in human liver S9; format: in vitro ADME; conditions: 1 μM, 4 mg/mL protein, 37° C., 0-60 minutes; compared to (Id-iia) and (Id-iib); FIG. 3
Protocol: The compounds (II), (III), (Id-iia), and (Id-iib) were incubated separately at 1 μM with rat and human liver S9 fraction suspended in 50 mM phosphate buffer at pH 7.4 with 5 mM MgCl2, 200 U/mL superoxide dismutase and 1 mM ascorbic acid. The human liver S9 (pool from 50 donors) and the rat liver S9 (from Wistar Han rats, pool of 240) fractions were purchased from SekisuiXenoTech, USA. The protein concentration in the incubation was 4 mg/mL. The incubations were performed in 96-well plates at 37° C. using an automated Hamilton liquid handling system with a total incubation volume of 150 microliter per well. The compounds were each incubated in triplicates in three wells per time point. The liver S9 suspensions were pre-incubated at 37° C. and the reactions started by addition of stock solutions of the test compounds to the incubation wells. The test compounds were dissolved in dimethyl sulfoxide (DMSO) and further diluted in water before spiking the stock solution into the incubation wells. […] Concentrations of compound (I) were determined after solid-phase extraction of the samples followed by LC-MS/MS analysis. The increase in concentration of compound (I) at the different time points was calculated by subtracting the concentration of compound (I) in the sample taken at time 0 from the concentrations of compound (I) in samples taken at the different time points. […]

[3] = PK experiments in rats: plasma compound (I) after oral dosing of prodrug; conditions: for conversion to compound (I) in vivo: oral dosing, rats, Example 2
Protocol: (§1) The tubes were inverted gently 6-8 times to ensure thorough mixing and then placed in wet ice. The collecting tube was placed in wet ice for up to 30 minutes until centrifugation (3000 G for 10 minutes at 4° C.). Once removed from the wet ice the centrifugation was initiated immediately. Immediately after end of centrifugation the samples were returned to wet ice. Two sub-samples of 130 microL plasma were transferred to each of two appropriately labelled cryo tubes containing 6.5 microL pre-cooled formic acid (20% in water v/v) The tube lid was immediately replaced, and the plasma solution was thoroughly mixed by inverting gently 6-8 times. The plasma samples were placed on water-ice as far as possible and stored frozen at nominally −70° C. within 60 minutes after sampling.
(§2) For experiments relating to compounds (II) and (III), the above protocol was used, with the exception that K3EDTA tubes were prepared with stabilizing aqueous solution consisting of 80 microL 100 mg/mL ascorbic acid and 40 microL inhibitor solution containing 100 mg/mL citric acid, 21 mg/mL D-saccharic acid 1,4 lactone and 29 mg/mL tris-(2-carboxyethyl)phosphine (TCEP).
(§3) Plasma samples were analyzed by solid phase extraction or direct protein precipitation followed by UPLC-MS/MS. MS detection using electrospray in the positive ion mode with monitoring of specific mass-to-charge transitions for compound (I) using internal standards for correcting the response. The concentration-time data was analyzed, using standard software using appropriate noncompartmental techniques to obtain estimates of the derived PK parameters.
(§4) Han Wistar rats were supplied by Charles River Laboratories, Sulzfeld, Germany. An artificial, automatically controlled, light and dark cycle of 12 hours was maintained. The rats received a standard laboratory diet from Brogaarden (Altromin 1324 pellets). The rats had unrestricted access to the diet.
(§5) Han Wistar rats were supplied by Charles River Laboratories, UK. An artificial, automatically controlled, light and dark cycle of 12 hours was maintained. The rats received a standard laboratory diet (Teklad 2014C Diet). The rats had unrestricted access to the diet.

physchem = format: physicochemical; conditions: aqueous buffer, thermodynamic from solid; 25 mM phosphate buffer pH 6, 24 hours rotation, saturated solution; read-out: Measured solubility at pH 6
Protocol: For compound (III), a sample was prepared with excess compound (III) to establish a saturated solution. 4.2 mg of compound (III) was transferred to a vial and 0.5 mL buffer (25 mM phosphate buffer, NaH2PO4/Na2HPO4, pH 6) was added. The sample was mixed by rotation for 24 hours. pH of the sample was measured at t=0 (prior to rotation) and at t=24 h (after 24 h of rotation). Subsequently, some of the sample was filtered with 0.22 micrometer polyvinylidene difluoride filter, first few drops discarded, and content of dissolved compound (III) was quantified by reverse phased HPLC (C18, 3.5 micrometer, 4.6×150 mm column) with eluent 20 mM ammonium buffer pH 2.4 with methanol, 80:20.
The remaining undissolved material was extracted, and air dried for approximately 20 minutes on a metal plate prior to analysis by X-ray powder diffractogram (XRPD). XRPD diffractograms were obtained on a PANalytical X'Pert PRO X-Ray Diffractometer using CuKa1 radiation (λ=1.5406 Å). The samples were measured in reflection mode in the 2θ-range 3-39.9° using an X'celerator detector.

[4] = male, Han Wistar, rat, in vivo, po
Protocol: as §1, §2, §3, §4, §5

[5] = in man after oral dosing; extensive hepatic first-pass metabolism; cited from earlier work

conversion to compound (I) in rat liver S9 [1] | conversion to compound (I) in human liver S9 fraction [2] | conversion to compound (I) in vivo [3] | solubility at 24 h (physchem) [µg/mL] | Structure (SMILES) | further results
is converted to compound (I) | increased conversion to compound (I) | converted to compound (I) in vivo | – | CCCN1CCC[C@@H]2Cc3c(ccc(OS(N)(=O)=O)c3O)C[C@H]21 [Compound (II), (4aR,10aR)-6-hydroxy-1-propyl-1,2,3,4,4a,5,10,10a-octahydrobenzo[g]quinolin-7-yl sulfamate] | –
– | – | – | – | CCCN1CCC[C@@H]2Cc3c(ccc(OC(=O)C(C)(C)C)c3OC(=O)C(C)(C)C)C[C@H]21 [(Ic)] | plasma concentrations of compound (I) ([3]; oral administration of the prodrug, Wistar rats, in words): extremely low
is converted to compound (I) | – | – | 37 | CCCN1CCC[C@@H]2Cc3c(ccc(OS(=O)(=O)O)c3O)C[C@H]21 [Compound (Id-iib), (4aR,10aR)-6-hydroxy-1-propyl-1,2,3,4,4a,5,10,10a-octahydrobenzo[g]quinolin-7-yl hydrogen sulfate] | –
is converted to compound (I) | increased conversion to compound (I) | converted to compound (I) in vivo | 890 (≈ 2610 µM) | CCCN1CCC[C@@H]2Cc3c(ccc(O)c3OS(N)(=O)=O)C[C@H]21 [Compound (III), (4aR,10aR)-7-hydroxy-1-propyl-1,2,3,4,4a,5,10,10a-octahydrobenzo[g]quinolin-6-yl sulfamate] | –
– | – | – | – | CCCN1CCC[C@@H]2CC3=C(CCCC3=O)C[C@H]21 [Compound (Ia)] | AUC0-24 [4]: 13.6 ng·h/mL; Cmax [4]: 3.16 ng/mL; Tmax ([4]; 0.3 mg/kg): 1.0 h; Exposure at 24 h ([4]; 24 h): 48 ± 26 pg/mL
– | – | – | – | CCCc1cc2c(s1)CN[C@@H]1CCc3cc(OC(C)=O)c(OC(C)=O)cc3[C@@H]21 [Adrogolide] | oral bioavailability [5]: ~4%
